From US8889615B2, “Methods for promoting epithelialization and healing of chronic wounds” (New York University, priority 2009, dated 2014)
“Also recorded” adds a separate entry of the source.

How the values were obtained:
[1] = system: β-catenin; experiment: β-catenin nuclearization in primary human epidermal keratinocytes (immunostaining, β-catenin y142); type: cell-based; conditions: 0.1 μmol/L dexamethasone; 200 nM Calphostin C or 10 μM RU486
Experimental: Topical GC treatment of human skin cepsimens was performed by daily applica-tion of Cormax (Clobetasol Propionate Cream 0.05%; Oclassen Pharmaceuticals, Inc.) using a sterile Q-tip applicator. Samples were fixed in formalin and processed for paraffin embedding following by sectioning to obtain 5-μm-thick sections. Keratinocytes were grown on chamber slides to 70% confluency (Lab-Tek, Naperville, Ill.) and treated with 0.1 μmol/L dexamethasone (Sigma) and incubated in the presence or absence of 200 nM Calphostin C or 10 μM RU486. Cells were fixed in 70% methanol for 10 minutes and permeabilized with 0.1% Triton X-100 for 10 minutes. Human tissues were stained with β-catenin antibody β-catenin phosphorylated Ab (Tyr- 142) (AbCam) at 1:1500 dilution in 5% bovine serum albumin and visualized using a secondary fluorescein isothiocyanate anti-mouse IgG antibody 1:150 (Sigma). All sections were mounted with mounting media. All negative controls were prepared by substitution of the primary antibody with an irrelevant antibody. The sections were analyzed using a Carl Zeiss microscope (Carl Zeiss, Thornwood, N.Y.) and digital images were collected using Adobe TWAIN—32 program.

[2] = system: LEF/TCF-mediated transcription; experiment: SuperTopFlash Tcf/Lef luciferase reporter assay in primary human keratinocytes; type: cell-based; conditions: 24 hours; for dexamethasone-mediated induction of LEF/TCF-mediated transcription: Dexamethasone 1 μM with RU486 10 μM or Calphostine C 200 nM
Experimental: Primary human keratinocytes were plated into 6-well plates and grown to 70% confluence in defined serum-free keratinocyte medium supplemented with epidermal growth factor and bovine pituitary extract (keratinocyte-SFM, GIBCO). Prior to transfection cells were transferred to basal serum—free medium (GIBCO) for 6 h, and then transfected with Tcf/Lef transcriptional activation reporter construct SuperTopFlash (Masckauchán, Mol. Biol. Cell, 17(12):5163-5172 (2006)) containing Tcf responsive elements and renilla-luciferase construct. Transfections were performed in triplicates using 3 μg of reporter plasmid, 0.2 μg of renilla-luciferase plasmid with a FuGene 6 transfection reagent (Roche), following manufacturer's instructions for procedure. Cells were incubated at 37° C. for over night with transfection cocktail and than treated with Dexamethasone (1 μM), RU486 (10 μM) and Calphostine C (200 nM) for 24 hours. Cell lysates were prepared the next day and both firefly and renilla luciferase activities were evaluated using Dual-Luciferase Reporter Assay System (Promega, Madison, Wis.). Samples were read in a luminometer and values were normalized for transfection efficiency using renilla-luciferase activity.

[3] = system: c-myc; experiment: c-myc Western blot in HEK; type: cell-based, human; conditions: DEX 1 μM with Calphostine C or RU486 10 μM, 4 hours
Experimental: Extracts for immunoblotting were prepared from a subconfluent 100 mm plate of normal HEK treated with DEX (1 μM), Calphostine C and RU486 (10 μM) or an equal volume of ethanol vehicle 4 hours prior to lysis. Cells were placed on ice; washed twice with phosphate-buffer saline (PBS); and lysed in 0.5 ml of modified RIPA buffer containing 50 mM Hepes, pH 7.5, 150 mM NaCl, 1 mM EDTA, 1 mM EGTA, 1 mM NaF, 1% Triton X-100, 10% glycerol, and additional protease and phosphatase inhibitors (1 mM phenylmethylsulfonyl fluoride, 20 mM glycerophosphate, 8 mM sodium pyrophosphate, 1 μg/ml leupeptin, 1 μg/ml pepstatin A, and 1 μg/ml aprotinin (Roche, Indianapolis, Ind.)) through fine needle aspiration. Lysates were centrifuged at 13,000 rpm for 10 min at 4° C. The soluble supernatants were normalized for total protein concentration using the Bradford protein assay, and the samples were stored at −20° C. Cell extracts were boiled for 5 minutes in Leammli sample buffer, were separated by 10% SDS-PAGE and transferred to nitrocellulose membrane (VWR, Batavia, Ill.) on 100 V for 1 hour in Tris/glycine transfer buffer. […] Western blot quantification was done using Total Lab Program (Non-linear dynamics Inc., NC).

[4] = system: wounded human skin; experiment: Human skin wound model, topical treatment, epithelialization by planimetry; type: cell-based; conditions: topical DEX 1 μM + Calphostine C 200 μM, 6 days
Experimental: Wounds were created using 4-mm punch biopsies through the reticular dermis and incubated on the air-liquid interface, as previously described. Immediately upon wounding cells were treated topically with dexamethasone (DEX) (1 μM), Calphostine C (CC) (200 μM) and the combination, DEX+CC and maintained on the air-liquid interface for 6 days. All specimens were frozen in OCT compound (Tissue Tek, Reading; Calif.) for immunocytochemistry. Wounds were quantified by planimetry as described previously (Tomic-Canic, et al., Wound Repair Regen., 15(1):71-9 (2007)).

[5] = molecular target: protein kinase C; conditions: cited from earlier work
[6] = system: GSK3β; experiment: Phospho-GSK3β (Ser 9) Western blot in keratinocytes; type: cell-based, human; conditions: DEX 1 μM with GO6979 400 μM, RU486 10 μM or U73122 10 μM
Experimental: Extracts for immunoblotting were prepared from a subconfluent 100 mm plate of normal HEK treated with DEX (1 μM), Calphostine C and RU486 (10 μM) or an equal volume of ethanol vehicle 4 hours prior to lysis. Cells were placed on ice; washed twice with phosphate-buffer saline (PBS); and lysed in 0.5 ml of modified RIPA buffer containing 50 mM Hepes, pH 7.5, 150 mM NaCl, 1 mM EDTA, 1 mM EGTA, 1 mM NaF, 1% Triton X-100, 10% glycerol, and additional protease and phosphatase inhibitors (1 mM phenylmethylsulfonyl fluoride, 20 mM glycerophosphate, 8 mM sodium pyrophosphate, 1 μg/ml leupeptin, 1 μg/ml pepstatin A, and 1 μg/ml aprotinin (Roche, Indianapolis, Ind.)) through fine needle aspiration. Lysates were centrifuged at 13,000 rpm for 10 min at 4° C. The soluble supernatants were normalized for total protein concentration using the Bradford protein assay, and the samples were stored at −20° C. Cell extracts were boiled for 5 minutes in Leammli sample buffer, were separated by 10% SDS-PAGE and transferred to nitrocellulose membrane (VWR, Batavia, Ill.) on 100 V for 1 hour in Tris/glycine transfer buffer. The membranes were blocked for 30 minutes in 5% bovine serum albumin in blocking solution (Tris-buffered saline (TBS, pH 7.4) at room temperature and then incubated in blocking solution with primary antibody at 4° C. overnight using 1:500 of serum for anti-c-myc antibody (Santa Cruz). The membranes were washed three times for 5 minutes with TBS and 0.1% Triton X-100 and twice with TBS and incubated for 1 hour at room temperature with horseradish peroxidase-conjugated secondary antibody (Santa Cruz, Calif.). Blots were then washed three times for 5 minutes with TBS and 0.1% Triton X-100 and developed using Super Signal West Pico Chemiluminescent substrate (Pierce, Rockford, Ill.) and exposed on x-ray film (Eastman Kodak Co. Bio Max MR-Film) according to the manufacturer's instructions. For loading control we used anti b-tubulin antibody (Santa Cruz, Santa Cruz, Calif.). Western blot quantification was done using Total Lab Program (Non-linear dynamics Inc., NC). […]

[7] = molecular target: protein kinase C (PKC); conditions: rat brain; cited from earlier work
[8] = system: Ca^2+-independent PKC d-, e-, and z-isozymes; conditions: even at micromolar levels; cited from earlier work
[9] = system: Primary human keratinocytes; experiment: Keratinocyte migration, wound scratch assay; type: cell-based
Experimental: Primary human keratinocytes were grown to 80% confluency. Twenty-four hours before the experiment cells were transferred to basal KBM medium (Life Technologies, Inc., Grand Island, N.Y.). Before the scratch, cells were treated with 8 μg/ml mitomycin C (ICN, Irvine, Calif.) for 1 hour and washed with basal media. Scratches were performed as previously described (Lee, et al., J Mol. Biol., 345:1083-1097 (2005)). Cells were incubated with 20 μmol/L LiCl or 25 ng/ml of EGF for 24 and 48 hours, rephotographed, and cell migration was quantified as previously described (Lee, et al., J. Mol. Biol., 345:1083-1097 (2005); Zavadil. et al., EMBO J., 23:1155-1165 (2004)). Thirty measurements were taken for each experimental condition and distance coverage by cells moving into the scratch wound area was quantified. Three images were analyzed per condition, per time point, and averages and standard deviations were calculated.

[10] = system: wounded human skin; experiment: Human skin ex vivo wound model with LiCl; type: cell-based; conditions: 4 mm punch wound, air-liquid interface, 20 mmol/L LiCl, 4 days
Excerpt: Wounds were created using 4-mm punch biopsies through the reticular dermis and a rim of cells participating in wound healing was collected by re-punching around the initial wounded area. Each time point was collected in parallel with an unwounded skin specimen of the same donor. All specimens were collected and either stored in RNAlater (Ambion, Austin, Tex.) or frozen in OCT compound (Tissue Tek, Reading, Calif.) for immunocytochemistry. To activate β-catenin, wounded skin was maintained on the air-liquid interface in the presence or absence of 20 mmol/L LiCl (Shimm, et al., J. Biol. Chem., 278:19674-19681 (2003)). Wounds were quantified by planimetry as described previously (Stojadinovic, et al., Am. J. Pathol., 167(1):59-69 (2005)).

[11] = system: PLC; conditions: human platelets and neutrophils; read-out: IC50, agonist-induced PLC activation; cited from earlier work

Compound | GC-mediated nuclearization (activation) of β-catenin [1] | dexamethasone-mediated induction of LEF/TCF-mediated transcription [2] | GCs-mediated c-myc activation [3] | dexamethasone-mediated phosphorylation of GSK3β [6] | further results
COc1c(CC(C)OC(=O)Oc2ccc(O)cc2)c2c3c(CC(C)OC(=O)c4ccccc4)c(OC)c(=O)c4c(O)cc(OC)c(c5c(OC)cc(O)c(c1=O)c52)c43 (stereo not drawn) [Calphostin C] | blocked | blocked | blocked |  | dexamethasone-mediated inhibition of epithelialization [4]: rescues; IC50 [5]: 50 nM
Cn1c2ccccc2c2c3c(c4c5ccccc5n(CCC#N)c4c21)CNC3=O [Go 6976, 12-(2-Cyanoethyl)-6,7,12,13-tetrahydro-13-methyl-5-oxo-5H-indolo(2,3-a)pyrrolo(3,4-c)-carbazole] |  |  |  | block | IC50 [7]: 7.9 nM; effect on kinase activity of Ca^2+-independent PKC d-, e-, and z-isozymes [8]: does not affect
[Cl-].[Li+] [LiCl] |  |  |  |  | keratinocyte migration ([9]; 20 μmol/L LiCl or 25 ng/ml of EGF, 24 and 48 hours): inhibited; EGF-stimulated keratinocyte migration ([9]; LiCl with EGF): efficiently blocked; wound healing (planimetry, histology) [10]: completely inhibited; LEF/TCF-mediated transcription (TopFlash activity) ([2]; agent alone, Dexamethasone 1 μM): increase activity
CC#C[C@]1(O)CC[C@H]2[C@@H]3CCC4=CC(=O)CCC4=C3[C@@H](c3ccc(N(C)C)cc3)C[C@@]21C [RU486, (11b,17b)-11-(4-(Dimethylamino)phenyl)-17-hydroxy-17-(1-propynyl)estra-4,9-dien-3-one] | blocked | abolished | blocked | completely abolished; also recorded: block | 
COc1ccc2c(c1)CCC1C2CC[C@@]2(C)C1CC[C@@H]2NCCCCCCN1C(=O)C=CC1=O (stereo partly drawn) [U-73122] |  |  |  | inhibits | IC50 [11]: 1000 to 2100 nM
